Experimental data from patent EP1247803A2, “Indolinone compounds suitable for modulation of protein kinases” (Sugen, Inc., priority 1996, dated 1998).

Experiments:
FLK-1 receptor = target: T1, FLK-1 receptor (Mus musculus, UniProt P35918); test: FLK-1 ELISA (kinase activity of the FLK-1 receptor in FLK-1/NIH3T3 cells, VEGF stimulated); assay type: cell-based; set-up: concentration or dose not given beside the values
T1 construct: expressed in transfected cells; host or cells: NIH3T3 C7#3
Experimental: An enzyme linked immunosorbent assay (ELISA) was conducted to measure the catalytic activity of the FLK-1 receptor and more specifically, the inhibition or activation of indolinone compounds on the catalytic activity of the FLK-1 receptor. Specifically, the following assay was conducted to measure catalytic activity of the FLK-1 receptor in FLK-1/NIH3T3 cells.
The materials and protocol for the FLK-1 ELISA assay are as described in International Patent Publication No. WO 96/40116, published December 19, 1996 by Tang et al.
Selected compounds were tested in the FLK-1 ELISA assay.
An ELISA assay was conducted to measure the kinase activity of the FLK-1 receptor and more specifically, the inhibition or activation of protein tyrosine kinase activity on the FLK-1 receptor. Specifically, the following assay was conducted to measure kinase activity of the FLK-1 receptor in FLK-1/NIH3T3 cells.
Materials. The following reagents and supplies were used: • a. […] Cappel goat anti-rabbit IgG (catalog no. 55641); • c. PBS (Gibco Catalog No. 450-1300EB); • d. TBSW Buffer (50 mM Tris (pH 7.2), 150 mM NaCl and 0.1% Tween-20); • e. Ethanolamine stock (10% ethanolamine (pH 7.0), stored at 4°C); • f. HNTG buffer (20mM HEPES buffer (pH 7.5), 150mM NaCl, 0.2% Triton X-100, and 10% glycerol); • g. EDTA (0.5 M (pH 7.0) as a 100X stock); • h. Sodium ortho vanadate (0.5 M as a 100X stock); • i. Sodium pyro phosphate (0.2M as a 100X stock); • j. NUNC 96 well V bottom polypropylene plates (Applied Scientific Catalog No. AS-72092); • k. NIH3T3 C7#3 Cells (FLK-1 expressing cells); • l. DMEM with 1X high glucose L Glutamine (catalog No. 11965-050); • m. FBS, Gibco (catalog no. 16000-028); • n. L-glutamine, Gibco (catalog no. 25030-016); • o. VEGF, PeproTech, Inc. (catalog no. 100-20)(kept as 1 µg/100 µl stock in Milli-Q dH2O and stored at -20°C; • p. Affinity purified anti-FLK-1 antiserum which can be obtained or purified as follows: • 1. Prepare a Tresyl-Activated Agarose/Flk-1-D column by incubating 10 ml of Tresyl-Activated Agarose with 20 mg of purified GST-Flk-1-D fusion protein in 100mM sodium bicarbonate (pH 9.6) buffer overnight at 4 °C. • 2. Wash the column once with PBS. • 3. Block the excess sites on the column with 2 M glycine for 2 hours at 4°C. • 4. Wash the column with PBS. • 5. Incubate the column with Rabbit anti-Flk-1D production bleed for 2 hours at 4 °C. • 6. Wash the column with PBS. • 7. Elute antiserum with 100 mM Citric Acid, pH3.0 and neutralize the eluate immediately with 2 M Tris, pH 9.0. • 8. Dialyize the eluate against PBS overnight at 4 °C with 3 changes of buffer (sample to buffer ratio is 1:100). • 9. Adjust the dialyized antiserum to 5% glycerol and store at -80 °C in small aliquotes. • q.
Protocol. The following protocol was used for conducting the assay: • 1. Coat Corning 96-well elisa plates with 1.0µg per well Cappel Anti-rabbit IgG antibody in 0.1M Na2CO3 pH 9.6. Bring final volume to 150 µl per well. Coat plates overnight at 4°C. Plates can be kept up to two weeks when stored at 4°C. • 2. Grow cells in Growth media(DMEM, supplemental with 2.0mM L-Glutamine, 10% FBS) in suitable culture dishes until confluent at 37°C, 5% CO2. • 3. Harvest cells by trypsinization and seed in Corning 25850 polystyrene 96-well roundbottom cell plates, 25.000 cells/well in 200µl of growth media. • 4. Grow cells at least one day at 37°C, 5% CO2. • 5. Wash cells with D-PBS 1X. • 6. Add 200µl/well of starvation media (DMEM, 2.0mM 1-Glutamine, 0.1% FBS). Incubate overnight at 37°C, 5% CO2. • 7. Dilute Compounds/Extracts 1:20 in polypropylene 96 well plates using starvation media. Dilute dimethylsulfoxide 1:20 for use in control wells. • 8. Remove starvation media from 96 well cell culture plates and add 162 µl of fresh starvation media to each well. • 9. Add 18µl of 1:20 diluted Compound/Extract dilution (from step 7) to each well plus the 1:20 dimethylsulfoxide dilution to the control wells (+/- VEGF), for a final dilution of 1:200 after cell stimulation. […]

PDGF-R = PDGF-R (Homo sapiens, UniProt P09619); test: PDGF-R ELISA; assay type: cell-based
From the text: A PDGF-R ELISA is described in International Patent Publication No. WO 96/40116, published December 19, 1996 by Tang et al.

T1 sequence (P35918 20-1345): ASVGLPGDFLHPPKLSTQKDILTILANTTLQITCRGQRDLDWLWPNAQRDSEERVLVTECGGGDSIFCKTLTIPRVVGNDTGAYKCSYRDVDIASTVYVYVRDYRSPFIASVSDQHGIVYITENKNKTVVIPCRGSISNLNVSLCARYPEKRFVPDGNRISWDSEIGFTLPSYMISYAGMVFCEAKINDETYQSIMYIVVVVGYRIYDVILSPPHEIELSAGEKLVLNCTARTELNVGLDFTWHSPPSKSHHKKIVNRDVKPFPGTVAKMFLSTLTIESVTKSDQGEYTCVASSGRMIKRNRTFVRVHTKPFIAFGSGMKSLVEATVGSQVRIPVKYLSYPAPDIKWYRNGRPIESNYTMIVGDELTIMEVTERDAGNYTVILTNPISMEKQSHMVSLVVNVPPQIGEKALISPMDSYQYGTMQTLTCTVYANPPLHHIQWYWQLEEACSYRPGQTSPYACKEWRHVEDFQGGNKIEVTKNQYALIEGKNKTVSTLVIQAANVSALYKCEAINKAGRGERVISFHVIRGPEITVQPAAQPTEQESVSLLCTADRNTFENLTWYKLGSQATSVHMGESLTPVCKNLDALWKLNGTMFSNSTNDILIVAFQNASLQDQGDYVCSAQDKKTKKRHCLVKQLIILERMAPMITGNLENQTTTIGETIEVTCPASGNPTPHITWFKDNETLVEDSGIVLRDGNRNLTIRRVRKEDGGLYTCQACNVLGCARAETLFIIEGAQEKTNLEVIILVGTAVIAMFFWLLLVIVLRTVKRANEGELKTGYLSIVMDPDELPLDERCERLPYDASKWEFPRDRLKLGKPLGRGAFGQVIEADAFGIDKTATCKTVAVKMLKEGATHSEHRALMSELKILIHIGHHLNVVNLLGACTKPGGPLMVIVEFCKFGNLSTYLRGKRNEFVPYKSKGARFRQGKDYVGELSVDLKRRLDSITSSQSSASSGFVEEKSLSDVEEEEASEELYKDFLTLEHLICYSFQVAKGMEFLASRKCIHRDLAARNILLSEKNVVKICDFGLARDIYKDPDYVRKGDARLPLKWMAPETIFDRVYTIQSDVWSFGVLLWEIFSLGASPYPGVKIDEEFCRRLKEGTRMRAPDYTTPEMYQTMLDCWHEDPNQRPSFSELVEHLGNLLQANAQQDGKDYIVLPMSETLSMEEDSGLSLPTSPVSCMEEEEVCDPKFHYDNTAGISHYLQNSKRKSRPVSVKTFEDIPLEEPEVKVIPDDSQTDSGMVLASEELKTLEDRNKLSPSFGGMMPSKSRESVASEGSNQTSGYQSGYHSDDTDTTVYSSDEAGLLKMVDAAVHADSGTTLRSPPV
Sequence of PDGF-R (P09619 33-1106, species assumed): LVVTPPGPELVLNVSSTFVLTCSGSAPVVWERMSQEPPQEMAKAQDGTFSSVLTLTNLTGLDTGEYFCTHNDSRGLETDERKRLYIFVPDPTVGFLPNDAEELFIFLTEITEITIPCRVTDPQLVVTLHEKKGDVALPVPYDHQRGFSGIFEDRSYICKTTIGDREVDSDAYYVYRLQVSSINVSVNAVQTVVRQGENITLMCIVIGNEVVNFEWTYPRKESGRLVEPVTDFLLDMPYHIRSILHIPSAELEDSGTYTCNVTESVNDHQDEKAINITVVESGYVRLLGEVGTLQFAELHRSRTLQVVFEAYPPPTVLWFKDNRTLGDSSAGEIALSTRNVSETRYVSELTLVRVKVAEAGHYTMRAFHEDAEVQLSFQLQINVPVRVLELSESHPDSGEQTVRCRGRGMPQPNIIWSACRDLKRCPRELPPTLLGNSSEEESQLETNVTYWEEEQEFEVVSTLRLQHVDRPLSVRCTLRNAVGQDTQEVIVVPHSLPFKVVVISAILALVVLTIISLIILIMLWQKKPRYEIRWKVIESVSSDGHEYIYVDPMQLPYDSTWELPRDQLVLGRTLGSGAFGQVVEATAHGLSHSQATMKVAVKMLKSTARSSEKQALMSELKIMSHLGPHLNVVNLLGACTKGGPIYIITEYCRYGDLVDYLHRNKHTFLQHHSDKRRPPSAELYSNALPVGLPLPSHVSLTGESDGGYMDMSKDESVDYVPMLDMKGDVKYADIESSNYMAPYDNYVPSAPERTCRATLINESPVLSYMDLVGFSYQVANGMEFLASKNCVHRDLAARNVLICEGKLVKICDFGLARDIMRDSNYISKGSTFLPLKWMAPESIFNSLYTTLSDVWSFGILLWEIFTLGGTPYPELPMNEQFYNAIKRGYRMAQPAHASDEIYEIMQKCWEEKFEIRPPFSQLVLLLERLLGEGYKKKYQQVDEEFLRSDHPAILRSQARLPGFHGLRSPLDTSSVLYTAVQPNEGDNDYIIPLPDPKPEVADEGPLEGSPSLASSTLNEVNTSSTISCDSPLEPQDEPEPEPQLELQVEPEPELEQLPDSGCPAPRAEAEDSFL

O=C1Nc2ccc(I)cc2C1=Cc1cc([N+](=O)[O-])ccc1O [10733/B10]
Fik Kinase %Inhibition (FLK-1 receptor): 5.7%
PDGF Kinase %Inhibition (PDGF-R): -59.6%

COc1c([N+](=O)[O-])cc(C=C2C(=O)Nc3ccc(Br)c(C)c32)cc1C(C)(C)C [10733/C03]
Fik Kinase %Inhibition (FLK-1 receptor): 17.0%
PDGF Kinase %Inhibition (PDGF-R): 28.1%

CNS(=O)(=O)c1ccc2c(c1)C(=Cc1ccc(O)c(C)c1O)C(=O)N2 [10718/D09]
Fik Kinase %Inhibition (FLK-1 receptor): -9.1%

COc1c(C(C)(C)C)cc(C=C2C(=O)Nc3ccc(Br)c(C)c32)cc1C(C)(C)C [10733/C04]
Fik Kinase %Inhibition (FLK-1 receptor): 8.4%
PDGF Kinase %Inhibition (PDGF-R): 19.2%

CC(C)(C)c1cc(C=C2C(=O)Nc3ccc(I)cc32)cc(I)c1OCc1ccccc1 [10733/B02]
Fik Kinase %Inhibition (FLK-1 receptor): -7.4%
PDGF Kinase %Inhibition (PDGF-R): 14.7%

CNS(=O)(=O)c1ccc2c(c1)C(=Cc1cc([N+](=O)[O-])c(OC)c(C(C)(C)C)c1)C(=O)N2 [10733/D03]
Fik Kinase %Inhibition (FLK-1 receptor): 33.2%
PDGF Kinase %Inhibition (PDGF-R): 40.7%

O=C1Nc2ccc(S(=O)(=O)Nc3ccc(C(F)(F)F)cc3)cc2C1=CC(c1cccs1)C(F)(F)F (stereo not drawn) [10732/E02]
Fik Kinase %Inhibition (FLK-1 receptor): 13.1%
PDGF Kinase %Inhibition (PDGF-R): 4.8%

CC(C)c1cc(C=C2C(=O)Nc3ccc(S(=O)(=O)N4CCOCC4)cc32)cc(C(C)C)c1Oc1ccccc1 [10732/F04]
Fik Kinase %Inhibition (FLK-1 receptor): 16.2%
PDGF Kinase %Inhibition (PDGF-R): 23.5%

COc1c(I)cc(C=C2C(=O)Nc3ccc(CCCl)cc32)cc1C(C)(C)C [10732/G11]
Fik Kinase %Inhibition (FLK-1 receptor): 10.9%
PDGF Kinase %Inhibition (PDGF-R): 38.6%

CNS(=O)(=O)c1ccc2c(c1)C(=Cc1ccc(Cl)c([N+](=O)[O-])c1)C(=O)N2 [10718/D08]
Fik Kinase %Inhibition (FLK-1 receptor): 3.9%

CC(C)(C)c1cc(C=C2C(=O)Nc3ccc(CCCl)cc32)cc(Br)c1OCc1ccccc1 [10732/G08]
Fik Kinase %Inhibition (FLK-1 receptor): 10.0%
PDGF Kinase %Inhibition (PDGF-R): 37.6%

CC(C)(C)c1cc(C=C2C(=O)Nc3ccc(S(=O)(=O)Nc4ccc(C(F)(F)F)cc4)cc32)cc(Cl)c1OCc1ccccc1 [10732/E10]
Fik Kinase %Inhibition (FLK-1 receptor): 16.7%
PDGF Kinase %Inhibition (PDGF-R): 35.6%

CC(C)(C)c1cc(C=C2C(=O)Nc3ccc(S(=O)(=O)Nc4ccc(C(F)(F)F)cc4)cc32)cc(I)c1OCc1ccccc1 [10733/E02]
Fik Kinase %Inhibition (FLK-1 receptor): 0.8%
PDGF Kinase %Inhibition (PDGF-R): 20.8%

CNS(=O)(=O)c1ccc2c(c1)C(=Cc1ccco1)C(=O)N2 [10718/D10]
Fik Kinase %Inhibition (FLK-1 receptor): 15.0%

CC(C)(C)c1cc(C=C2C(=O)Nc3c(Br)cc(Br)cc32)cc(I)c1OCc1ccccc1 [10733/A02]
Fik Kinase %Inhibition (FLK-1 receptor): -5.2%
PDGF Kinase %Inhibition (PDGF-R): 11.5%

O=C1Nc2ccc(CCCl)cc2C1=CC(c1cccs1)C(F)(F)F (stereo not drawn) [10732/G02]
Fik Kinase %Inhibition (FLK-1 receptor): 8.1%
PDGF Kinase %Inhibition (PDGF-R): 10.3%

CNS(=O)(=O)c1ccc2c(c1)C(=Cc1cc(I)c(OC)c(C(C)(C)C)c1)C(=O)N2 [10732/D11]
Fik Kinase %Inhibition (FLK-1 receptor): 18.8%
PDGF Kinase %Inhibition (PDGF-R): 18.9%

CNS(=O)(=O)c1ccc2c(c1)C(=Cc1cc(C(C)(C)C)c(OCc3ccccc3)c(C(C)(C)C)c1)C(=O)N2 [10733/D05]
Fik Kinase %Inhibition (FLK-1 receptor): 16.5%
PDGF Kinase %Inhibition (PDGF-R): 16.8%

CC(C)(C)c1cc(C=C2C(=O)Nc3ccc(S(=O)(=O)Nc4ccc(C(F)(F)F)cc4)cc32)cc(Br)c1OCc1ccccc1 [10732/E08]
Fik Kinase %Inhibition (FLK-1 receptor): 13.6%
PDGF Kinase %Inhibition (PDGF-R): 32.6%

CNS(=O)(=O)c1ccc2c(c1)C(=Cc1cc(Br)cc(OC)c1O)C(=O)N2 [10733/D08]
Fik Kinase %Inhibition (FLK-1 receptor): -8.3%
PDGF Kinase %Inhibition (PDGF-R): 42.3%

O=C1Nc2ccc(I)cc2C1=Cc1cc(Br)ccc1O [10733/B09]
Fik Kinase %Inhibition (FLK-1 receptor): -2.6%
PDGF Kinase %Inhibition (PDGF-R): 7.0%

CNS(=O)(=O)c1ccc2c(c1)C(=Cc1c(C)[nH]c(C(=O)OC)c1C(=O)OC)C(=O)N2 [10718/D07]
Fik Kinase %Inhibition (FLK-1 receptor): 7.8%

COc1c(C)cc(C=C2C(=O)Nc3ccc(I)cc32)cc1C [10733/B06]
Fik Kinase %Inhibition (FLK-1 receptor): 4.6%
PDGF Kinase %Inhibition (PDGF-R): -9.2%

CC(C)c1cc(C=C2C(=O)Nc3ccc(CCCl)cc32)cc(C(C)C)c1Oc1ccccc1 [10732/G04]
Fik Kinase %Inhibition (FLK-1 receptor): 12.6%
PDGF Kinase %Inhibition (PDGF-R): 25.0%

COc1cc(Br)cc(C=C2C(=O)Nc3ccc(I)cc32)c1O [10733/B08]
Fik Kinase %Inhibition (FLK-1 receptor): -16.0%
PDGF Kinase %Inhibition (PDGF-R): -15.7%

Cc1cc(C=C2C(=O)Nc3ccc(I)cc32)cc(C)c1OCc1ccccc1 [10733/B07]
Fik Kinase %Inhibition (FLK-1 receptor): 1.2%
PDGF Kinase %Inhibition (PDGF-R): 4.2%

CNS(=O)(=O)c1ccc2c(c1)C(=Cc1cc([N+](=O)[O-])ccc1O)C(=O)N2 [10733/D10]
Fik Kinase %Inhibition (FLK-1 receptor): 2.9%
PDGF Kinase %Inhibition (PDGF-R): -10.1%

COc1c(C(C)C)cc(C=C2C(=O)Nc3ccc(S(=O)(=O)Nc4ccc(C(F)(F)F)cc4)cc32)cc1C(C)C [10732/E03]
Fik Kinase %Inhibition (FLK-1 receptor): 16.7%
PDGF Kinase %Inhibition (PDGF-R): 48.7%

COc1ccc(C=C2C(=O)Nc3ccc(S(=O)(=O)N4CCOCC4)cc32)cc1C(C)(C)C [10732/F05]
Fik Kinase %Inhibition (FLK-1 receptor): 37.3%
PDGF Kinase %Inhibition (PDGF-R): 12.8%

COc1c(C(C)(C)C)cc(C=C2C(=O)Nc3c(Br)cc(Br)cc32)cc1C(C)(C)C [10733/A04]
Fik Kinase %Inhibition (FLK-1 receptor): -11.2%
PDGF Kinase %Inhibition (PDGF-R): -14.1%

CC(C)(C)c1cc(C=C2C(=O)Nc3ccc(S(=O)(=O)Nc4ccc(C(F)(F)F)cc4)cc32)ccc1OCc1ccccc1 [10732/E06]
Fik Kinase %Inhibition (FLK-1 receptor): 2.8%
PDGF Kinase %Inhibition (PDGF-R): 16.9%

COc1cc(Br)cc(C=C2C(=O)Nc3c(Br)cc(Br)cc32)c1O [10733/A08]
Fik Kinase %Inhibition (FLK-1 receptor): -17.1%
PDGF Kinase %Inhibition (PDGF-R): -10.1%

COc1c(Cl)cc(C=C2C(=O)Nc3ccc(S(=O)(=O)Nc4ccc(C(F)(F)F)cc4)cc32)cc1C(C)(C)C [10732/E09]
Fik Kinase %Inhibition (FLK-1 receptor): 15.3%
PDGF Kinase %Inhibition (PDGF-R): 46.7%

O=C1Nc2c(Br)cc(Br)cc2C1=Cc1cc([N+](=O)[O-])ccc1O [10733/A10]
Fik Kinase %Inhibition (FLK-1 receptor): -9.3%
PDGF Kinase %Inhibition (PDGF-R): -13.3%

COc1c(Br)cc(C=C2C(=O)Nc3ccc(S(=O)(=O)Nc4ccc(C(F)(F)F)cc4)cc32)cc1C(C)(C)C [10732/E07]
Fik Kinase %Inhibition (FLK-1 receptor): 21.3%
PDGF Kinase %Inhibition (PDGF-R): 42.2%

COc1c(O)ccc(C=C2C(=O)Nc3c(Br)cc(Br)cc32)c1[N+](=O)[O-] [10733/A11]
Fik Kinase %Inhibition (FLK-1 receptor): 15.0%
PDGF Kinase %Inhibition (PDGF-R): 4.2%

COc1cc(Br)c(O)c(C=C2C(=O)Nc3ccc(S(=O)(=O)Nc4ccc(C(F)(F)F)cc4)cc32)c1 [10718/E03]
Fik Kinase %Inhibition (FLK-1 receptor): 10.0%

CCOC(=O)c1c(C)[nH]c(C=C2C(=O)Nc3ccc(S(=O)(=O)Nc4ccc(C(F)(F)F)cc4)cc32)c1C [10718/E02]
Fik Kinase %Inhibition (FLK-1 receptor): 19.7%

COc1cccc(O)c1C=C1C(=O)Nc2c(Br)cc(Br)cc21 [10717/A10]
Fik Kinase %Inhibition (FLK-1 receptor): -3.3%

CNS(=O)(=O)c1ccc2c(c1)C(=Cc1ccc([N+](=O)[O-])o1)C(=O)N2 [10718/D11]
Fik Kinase %Inhibition (FLK-1 receptor): 13.3%
